Values of other authors in PMC7904743, “WIDOCK: a reactive docking protocol for virtual screening of covalent inhibitors” (Journal of Computer-Aided Molecular Design, 2021).
Like-named read-outs stand apart in the source and are kept apart here.

Assays:
[1] = thiol reactivity, cited from earlier work
[2] = tested on: NUDT7; conditions: protein labeling at 200 μM; experimental actives if % labeling higher than 50%; cited from earlier work
[3] = tested on: OTUB2; conditions: experimental actives if % labeling higher than 50%; cited from earlier work
[4] = natural log of average rate constant k
[5] = natural logarithm of average rate constant

| SMILES | ln(avg k) [1, 4] | ln(avg k) [1, 5] | NUDT7 % labeling [2] [%] | OTUB2 % labeling [3] [%] |
| --- | --- | --- | --- | --- |
| CC(NC(=O)CCl)c1ccc(Br)cc1 (stereo not drawn) [PCM-0102374, CC(NC(=O)CCl)c1ccc(Br)cc1] | -16.325 | -16.325 | 23 | 34 |
| O=C(CCl)Nc1ccccc1N1CCCC1=O [PCM-0102375, O=C(CCl)Nc1ccccc1N1CCCC1=O] | -16.453 | -16.453 | 0 | 13 |
| O=C(CCl)NC(=O)Nc1ccccc1F [PCM-0102376, O=C(CCl)NC(=O)Nc1ccccc1F] | -15.900 | -15.900 | 0 | 0 |
| O=C(CCl)N1CCCCCCC1 [PCM-0102377, O=C(CCl)N1CCCCCCC1] | -15.780 | -15.780 | 0 | 0 |
| O=C(CCl)N1CCN(c2ncc(C(F)(F)F)cc2Cl)CC1 [PCM-0102378, O=C(CCl)N1CCN(c2ncc(C(F)(F)F)cc2Cl)CC1] | -15.476 | -15.476 | 14 | 5 |
| Cc1ccc(S(=O)(=O)N2CCN(C(=O)CCl)CC2)cc1C [PCM-0102379, Cc1ccc(S(=O)(=O)N2CCN(C(=O)CCl)CC2)cc1C] | -15.076 | -15.076 | 10 | 0 |
| O=C(CCl)N1N=C(c2ccco2)CC1c1ccco1 (stereo not drawn) [PCM-0102380, O=C(CCl)N1N=C(c2ccco2)CC1c1ccco1] | -15.395 | -15.395 | 54 | 0 |
| N#CC(c1ccccc1)N1CCN(C(=O)CCl)CC1 (stereo not drawn) [PCM-0102381, N#CC(c1ccccc1)N1CCN(C(=O)CCl)CC1] | -15.106 | -15.106 | 11 | 0 |
| Cc1ccc(-c2cc(NC(=O)CCl)on2)cc1 [PCM-0102382, Cc1ccc(-c2cc(NC(=O)CCl)on2)cc1] | -15.819 | -15.819 | 81 | 45 |
| O=C(CCl)NNC(=O)C1COc2ccccc2O1 (stereo not drawn) [PCM-0102384, O=C(CCl)NNC(=O)C1COc2ccccc2O1] | -17.088 | -17.088 | 0 | 27 |
| O=C(CCl)N1CCN(Cc2ccc3c(c2)OCCO3)CC1 [PCM-0102386, O=C(CCl)N1CCN(Cc2ccc3c(c2)OCCO3)CC1] | -15.669 | -15.669 | 0 | 0 |
| O=C(CCl)N1CCN(Cc2ccccc2F)CC1 [PCM-0102387, O=C(CCl)N1CCN(Cc2ccccc2F)CC1] | -15.308 | -15.308 | 0 | 32 |
| O=C(CCl)Nc1cc2[nH]c(=O)[nH]c2cc1Br [PCM-0102388, O=C(CCl)Nc1cc2[nH]c(=O)[nH]c2cc1Br] | -15.369 | -15.369 | 0 | 56 |
| O=C(Nc1ccccc1O)C1CCN(C(=O)CCl)CC1 [PCM-0102389, O=C(Nc1ccccc1O)C1CCN(C(=O)CCl)CC1] | -15.332 | -15.332 | 10 | 14 |
| Cc1ccccc1C(C)NC(=O)CCl (stereo not drawn) [PCM-0102390, Cc1ccccc1C(C)NC(=O)CCl] | -16.582 | -16.582 | 10 | 26 |
| O=C(CCl)NCC(=O)N1CCCC1 [PCM-0102391, O=C(CCl)NCC(=O)N1CCCC1] | -17.246 | -17.246 | 0 | 0 |
| O=C(CCl)Nc1ccc([N+](=O)[O-])cc1Cl [PCM-0102392, O=C(CCl)Nc1ccc([N+](=O)[O-])cc1Cl] | -15.878 | -15.878 | 16 | 21 |
| O=C(CCl)N1CCCC1c1cccs1 (stereo not drawn) [PCM-0102393, O=C(CCl)N1CCCC1c1cccs1] | -15.246 | -15.246 | 36 | 0 |
| Cc1cc(C)cc(NC(=O)CCl)c1 [PCM-0102394, Cc1cc(C)cc(NC(=O)CCl)c1] | -15.891 | -15.891 | 0 | 22 |
| N#Cc1ccccc1S(=O)(=O)N1CCN(C(=O)CCl)CC1 [PCM-0102395, N#Cc1ccccc1S(=O)(=O)N1CCN(C(=O)CCl)CC1] | -15.498 | -15.498 | 28 | 0 |
| O=C(CCl)Nc1cccc2ccccc12 [PCM-0102396, O=C(CCl)Nc1cccc2ccccc12] | -16.060 | -16.060 | 12 | 54 |

| SMILES | ln(avg k) [1, 4] | ln(avg k) [1, 5] | NUDT7 % labeling [2] [%] | OTUB2 % labeling [3] [%] |
| --- | --- | --- | --- | --- |
| O=C(CCl)N1CCN(Cc2ccc3c(c2)OCO3)CC1 [PCM-0102397, O=C(CCl)N1CCN(Cc2ccc3c(c2)OCO3)CC1] | -15.445 | -15.445 | 0 | 0 |
| Cc1ccc(C)c(NC(=O)CCl)c1 [PCM-0102398, Cc1ccc(C)c(NC(=O)CCl)c1] | -16.327 | -16.327 | 0 | 0 |
| Cc1ccc(CN(C)C(=O)CCl)o1 [PCM-0102399, Cc1ccc(CN(C)C(=O)CCl)o1] | -15.728 | -15.728 | 5 | 0 |
| O=C(CCl)Nc1ccc(C(=O)O)cc1 [PCM-0102400, O=C(CCl)Nc1ccc(C(=O)O)cc1] | -16.430 | -16.430 | 0 | 0 |
| CN(Cc1ccc(Br)cc1)C(=O)CCl [PCM-0102401, CN(Cc1ccc(Br)cc1)C(=O)CCl] | -15.733 | -15.733 | 58 | 0 |
| CC(NC(=O)CCl)C12CC3CC(CC(C3)C1)C2 (stereo not drawn) [PCM-0102402, CC(NC(=O)CCl)C12CC3CC(CC(C3)C1)C2] | -17.061 | -17.061 | 7 | 24 |
| O=C(CCl)NC1C2CC3CC(C2)CC1C3 (stereo not drawn) [PCM-0102404, O=C(CCl)NC1C2CC3CC(C2)CC1C3] | -16.228 | -16.228 | 0 | 33 |
| O=C(CCl)N1CCN(C2CCS(=O)(=O)C2)CC1 (stereo not drawn) [PCM-0102405, O=C(CCl)N1CCN(C2CCS(=O)(=O)C2)CC1] | -15.476 | -15.476 | 0 | 0 |
| O=C(CCl)Nc1ccc([N+](=O)[O-])cc1C(F)(F)F [PCM-0102406, O=C(CCl)Nc1ccc([N+](=O)[O-])cc1C(F)(F)F] | -16.390 | -16.390 | 0 | 0 |
| CS(=O)(=O)c1cccc(NC(=O)CCl)c1 [PCM-0102407, CS(=O)(=O)c1cccc(NC(=O)CCl)c1] | -15.426 | -15.426 | 0 | 33 |
| O=C(CCl)Nc1ccc2c(c1)OCCCO2 [PCM-0102409, O=C(CCl)Nc1ccc2c(c1)OCCCO2] | -15.744 | -15.744 | 10 | 23 |
| COc1cccc(NC(=O)CCl)c1 [PCM-0102410, COc1cccc(NC(=O)CCl)c1] | -15.888 | -15.888 | 0 | 0 |
| O=C(CCl)NC(=O)NC1CC1 [PCM-0102411, O=C(CCl)NC(=O)NC1CC1] | -16.777 | -16.777 | 0 | 0 |
| O=C(CCl)Nc1cc(Cl)ccc1C(=O)O [PCM-0102412, O=C(CCl)Nc1cc(Cl)ccc1C(=O)O] | -17.207 | -17.207 | 16 | 7 |
| O=C(CCl)N1CCSc2ccccc21 [PCM-0102415, O=C(CCl)N1CCSc2ccccc21] | -15.511 | -15.511 | 10 | 16 |
| CS(=O)(=O)N1CCN(C(=O)CCl)CC1 [PCM-0102417, CS(=O)(=O)N1CCN(C(=O)CCl)CC1] | -15.539 | -15.539 | 0 | 0 |
| CC1CCc2c(sc(NC(=O)CCl)c2C#N)C1 (stereo not drawn) [PCM-0102420, CC1CCc2c(sc(NC(=O)CCl)c2C#N)C1] | -16.452 | -16.452 | 47 | 0 |
| O=C(CCl)N1CCCC(c2nc3ccccc3s2)C1 (stereo not drawn) [PCM-0102425, O=C(CCl)N1CCCC(c2nc3ccccc3s2)C1] | -15.591 | -15.591 | 28 | 0 |
| CC1(c2ccccc2)NC(=O)N(NC(=O)CCl)C1=O (stereo not drawn) [PCM-0102428, CC1(c2ccccc2)NC(=O)N(NC(=O)CCl)C1=O] | -17.653 | -17.653 | 0 | 0 |
| CC(C)c1cccc(NC(=O)CCl)c1 [PCM-0102429, CC(C)c1cccc(NC(=O)CCl)c1] | -15.994 | -15.994 | 10 | 23 |
| O=C(CCl)NNC(=O)c1ccc(F)cc1 [PCM-0102430, O=C(CCl)NNC(=O)c1ccc(F)cc1] | -17.459 | -17.459 | 0 | 31 |
